Test: xn = mol fraction of the nth substance listed
Conditions: 101.3 kPa, Liquid

CCCCN [1-butanamine] + ClC(Cl)(Cl)Cl
Conditions | mass density, 303.15 K [kg/m3] | mass density, 313.15 K [kg/m3] | viscosity, 303.15 K [mPa·s] | viscosity, 313.15 K [mPa·s]
x1 = 0.0099 | 1566.74 | 1547.13 | 0.855 | 0.763
x1 = 0.0183 | 1559.88 | 1540.41 | 0.858 | 0.765
x1 = 0.0287 | 1551.36 | 1532.01 | 0.861 | 0.768
x1 = 0.0386 | 1543.06 | 1523.9 | 0.862 | 0.77
x1 = 0.0477 | 1535.31 | 1516.18 | 0.862 | 0.773
x1 = 0.0581 | 1526.57 | 1507.58 | 0.864 | 0.776
x1 = 0.0675 | 1518.67 | 1499.84 | 0.866 | 0.78
x1 = 0.076 | 1511.52 | 1492.72 | 0.869 | 0.784
x1 = 0.0856 | 1503.49 | 1484.69 | 0.871 | 0.786

CCCCN [1-butanamine] + ClC(Cl)Cl
Conditions | mass density, 303.15 K [kg/m3] | mass density, 313.15 K [kg/m3] | viscosity, 303.15 K [mPa·s] | viscosity, 313.15 K [mPa·s]
x1 = 0.0091 | 1462.78 | 1440.74 | 0.528 | 0.478
x1 = 0.0196 | 1453.53 | 1431.89 | 0.536 | 0.485
x1 = 0.0289 | 1445.49 | 1423.81 | 0.544 | 0.493
x1 = 0.0409 | 1435.01 | 1413.72 | 0.55 | 0.499
x1 = 0.0483 | 1428.52 | 1407.41 | 0.556 | 0.505
x1 = 0.0578 | 1420.29 | 1399.24 | 0.562 | 0.511
x1 = 0.0676 | 1411.7 | 1390.72 | 0.566 | 0.517
x1 = 0.0775 | 1403.16 | 1382.3 | 0.569 | 0.521
x1 = 0.0848 | – | – | 0.573 | 0.525

CCCCNCCCC [dibutylamine] + ClC(Cl)(Cl)Cl
Conditions | mass density, 303.15 K [kg/m3] | mass density, 313.15 K [kg/m3] | viscosity, 303.15 K [mPa·s] | viscosity, 313.15 K [mPa·s]
x1 = 0.0105 | 1560.01 | 1540.58 | 0.852 | 0.761
x1 = 0.0201 | 1546.59 | 1527.31 | 0.851 | 0.76
x1 = 0.0298 | 1533.23 | 1514.26 | 0.85 | 0.761
x1 = 0.0396 | 1519.86 | 1501.14 | 0.85 | 0.76
x1 = 0.049 | 1507.12 | 1488.59 | 0.849 | 0.759
x1 = 0.0583 | 1494.77 | 1476.4 | 0.847 | 0.757
x1 = 0.0696 | 1480 | 1461.9 | 0.846 | 0.755
x1 = 0.0789 | 1467.95 | 1450.12 | 0.845 | 0.754
x1 = 0.089 | 1455.15 | 1437.55 | 0.845 | 0.752

CCCCNCCCC [dibutylamine] + ClC(Cl)Cl
Conditions | mass density, 303.15 K [kg/m3] | mass density, 313.15 K [kg/m3] | viscosity, 303.15 K [mPa·s] | viscosity, 313.15 K [mPa·s]
x1 = 0.0103 | 1455.46 | 1433.69 | 0.53 | 0.48
x1 = 0.0197 | 1441.84 | 1420.36 | 0.54 | 0.489
x1 = 0.0294 | 1428.11 | 1406.9 | 0.552 | 0.493
x1 = 0.0381 | 1415.97 | 1394.99 | 0.56 | 0.502
x1 = 0.0482 | 1401.96 | 1381.38 | 0.572 | 0.51
x1 = 0.0593 | 1387.11 | 1366.85 | 0.584 | 0.516
x1 = 0.0684 | 1375.09 | 1355.19 | 0.599 | 0.528
x1 = 0.0788 | 1361.57 | 1342.11 | 0.612 | 0.535
x1 = 0.0876 | 1350.35 | 1331.13 | 0.624 | 0.542

CCCNCCC [dipropylamine] + ClC(Cl)Cl
Conditions | mass density, 303.15 K [kg/m3] | mass density, 313.15 K [kg/m3] | viscosity, 303.15 K [mPa·s] | viscosity, 313.15 K [mPa·s]
x1 = 0.0105 | 1457.85 | 1435.95 | 0.525 | 0.473
x1 = 0.0217 | 1444.32 | 1422.68 | 0.531 | 0.476
x1 = 0.0311 | 1433.19 | 1411.78 | 0.535 | 0.48
x1 = 0.0411 | 1421.35 | 1400.29 | 0.539 | 0.483
x1 = 0.051 | 1409.85 | 1389.04 | 0.544 | 0.486
x1 = 0.0608 | 1398.52 | 1378.03 | 0.548 | 0.488
x1 = 0.0708 | 1387.22 | 1366.94 | 0.552 | 0.492
x1 = 0.0808 | 1376 | 1356.01 | 0.558 | 0.494
x1 = 0.0914 | 1364.32 | 1344.6 | 0.561 | 0.497

Reference: the NIST ThermoML archive (doi:10.1016/j.tca.2004.08.013)
